# Test results taken from publication PMC7228900, “From sequence to function: a new workflow for nitrilase identification” (Applied Microbiology and Biotechnology, 2020).
# Test system: T1, Nit09
# T1 construct: His6-tagged, expressed in E. coli TOP10 from pBAD18, Ni-TED purified; gene 1005 bp
# Assay: GDH-coupled NADH oxidation at […] nm, Michaelis-Menten fit
# Assay type: biochemical, uncultured bacterium
# Details: 37 °C, 0.1 M HEPES pH 8.0; fit up to 6 mM, substrate inhibition above 10 mM
structure (smiles),measurement,value
N#CCc1ccccc1 [phenylacetonitrile],Km,1290 µM
